The source of these data is patent US11279733B2, “Peptide antibiotics” (priority 2017, dated 2022).

Values after ≈ are worked out from the molar mass of the structure shown. Positions of bridges follow the written chain, without caps; N, C: chain ends. Non-standard residues stand in square brackets, D forms with d. Residues, ends and D or L forms follow the SMILES beside them. *: point of attachment. Decanoyl = CCCCCCCCCC(=O)*; dDab = NCC[C@@H](N)C(=O)O; Dab = NCC[C@H](N)C(=O)O

The test system of experiment [1] is P. aeruginosa ATCC 27853. As to conditions: ATCC 27853. The protocol:
(§1) Bacteria were either obtained from American Type Culture Collection (ATCC; Manassas, Va., USA) or independent academic clinical isolate collections, as listed in Table 18 below. Bacteria were cultured in Nutrient broth (NB; Bacto Laboratories, catalogue No. 234000) or Mueller Hinton broth (MHB; Bacto Laboratories, catalogue No. 211443) at 37° C. overnight with shaking (˜180 RPM). A sample of each culture was then diluted 50-fold in fresh MHB and incubated at 37° C. for 2-3 h with shaking (˜180 RPM). Compound stock solutions were prepared as 0.64 mg/mL or 2.56 mg/mL in water. The compounds, at twice the final desired concentration, were serially diluted 2-fold across the wells of 96-well plates (Polystyrene, Corning, catalogue No. 3370). Mid-log phase bacterial cultures (after 2-3 h incubation) were diluted to a final concentration of 1×10^6 colony forming units (CFU)/mL, and 50 μL was added to each well giving a final cell density of 5×10^5 and a compound concentration range of 32 μg/mL to 0.015 μg/mL (128-0.06 μg/mL against P. aeruginosa PA9704).

In experiment [2] the test system is K. pneumoniae ATCC 700603, MDR. As to conditions: ATCC 700603. On the procedure:
as §1

The subject of experiment [3] is K. pneumoniae GN_106, PmxR. As to conditions: GN 106, PmxR. On the procedure: as §1
Experiment [4] has as its system S. aureus ATCC 25923, MSSA. The settings on record: ATCC 25923. On the procedure:
as §1

Experiment [5] relates to P. aeruginosa GN_105, PmxR. As to conditions: GN 105, PmxR. On the procedure:
as §1

Experiment [6] concerns A. baumannii ATCC 19606. The settings on record: ATCC 19606. The protocol:
as §1

The subject of experiment [7] is A. baumannii GN_093 PmxR. As to conditions: GN 093 PmxR. The protocol:
as §1

Experiment [8] concerns K. pneumoniae ATCC BAA-2146, NDM-1 pos. The settings on record: ATCC BAA-2146. The protocol: as §1
Experiment [9] concerns K. pneumoniae ATCC 13883. The settings on record: ATCC 13883. On the procedure:
as §1

Experiment [10] deals with E. coli ATCC 25922. The settings on record: ATCC 25922. The protocol: as §1
The test system of experiment [11] is P. aeruginosa GN_043, PmxR. The settings on record: Table 6; polymyxin-resistant. On the procedure:
as §1

Experiment [12] concerns K. pneumoniae GN_102 PmxR. As to conditions: GN 102 PmxR. On the procedure: as §1

With `CCCCCCCCCC(=O)N[C@@H](CCN)C(=O)N[C@H]1CCNC(=O)[C@H](CC(C)C)NC(=O)[C@H](CCN)NC(=O)[C@H](CCN)NC(=O)[C@H](CC(C)C)NC(=O)[C@@H](Cc2ccccc2)NC(=O)[C@H](CCN)NC1=O` [compound 5568, nC9CO-L-Dab-cyc[L-Dab-L-Dab-D-Phe-L-Leu-L-Dab-L-Dab-L-Leu]] (Decanoyl-[Dab][Dab][Dab][dF]L[Dab][Dab]L; lactam 2-C), the “MIC, P. aeruginosa ATCC 27853” value in [1] was 4 µg/mL (≈ 3.89 µM). Further, the “MIC, K. pneumoniae ATCC 700603, MDR” value in experiment [2] is 8 µg/mL (≈ 7.78 µM). Further, the “MIC K. pneumoniae GN_106, PmxR” value in experiment [3] worked out at 16 µg/mL (≈ 15.6 µM). The “MIC, S. aureus ATCC 25923, MSSA” value in experiment [4] worked out at 8 µg/mL (≈ 7.78 µM). Besides, in [5], the “MIC P. aeruginosa GN_105, PmxR” value came to 4 µg/mL (≈ 3.89 µM). The “MIC, A. baumannii ATCC 19606” value in experiment [6] was found to be 16 µg/mL (≈ 15.6 µM). In addition, the “MIC A. baumannii GN_093 PmxR” value in experiment [7] is more than 32 µg/mL. In addition, the “MIC, K. pneumoniae ATCC BAA-2146, NDM-1 pos” value in experiment [8] was found to be 8 µg/mL (≈ 7.78 µM). For the same molecule, the “MIC, K. pneumoniae ATCC 13883” value in experiment [9] worked out at 4 µg/mL (≈ 3.89 µM). For the same molecule, the “MIC, E. coli ATCC 25922” value in experiment [10] came out at 8 µg/mL (≈ 7.78 µM). In addition, the “MIC P. aeruginosa GN_043, PmxR” value in experiment [11] was determined as 4 µg/mL (≈ 3.89 µM).

Regarding `CC(=O)N[C@H](CCN)C(=O)N[C@H]1CCNC(=O)[C@H](Cc2c[nH]c3ccccc23)NC(=O)[C@H](CCN)NC(=O)[C@H](CCN)NC(=O)[C@H](CC(C)C)NC(=O)[C@@H](Cc2ccccc2)NC(=O)[C@H](CCN)NC1=O` [compound 8981, Ac-D-Dab-cyc[L-Dab-L-Dab-D-Phe-L-Leu-L-Dab-L-Dab-L-Trp]] (Ac-[dDab][Dab][Dab][dF]L[Dab][Dab]W; lactam 2-C), the “MIC P. aeruginosa ATCC 27853” value in experiment [1] was determined as 4 µg/mL (≈ 4.04 µM). For the same molecule, the “MIC K. pneumoniae ATCC 700603, MDR” value in experiment [2] was found to be 16 µg/mL (≈ 16.2 µM). In addition, the “MIC K. pneumoniae GN_106, PmxR” value in experiment [3] was more than 32 µg/mL. Further, the “MIC S. aureus ATCC 25923, MSSA” value in experiment [4] is more than 32 µg/mL. Also, the “MIC K. pneumoniae GN_102 PmxR” value in [12] was more than 32 µg/mL. Also, the “MIC P. aeruginosa GN_105, PmxR” value in experiment [5] is more than 32 µg/mL. Also, the “MIC A. baumannii ATCC 19606” value in experiment [6] was more than 32 µg/mL. In addition, in experiment [7], the “MIC A. baumannii GN_093 PmxR” value turned out to be 32 µg/mL (≈ 32.3 µM). Also, in experiment [8], the “MIC K. pneumoniae ATCC BAA-2146, NDM-1 pos” value is 16 µg/mL (≈ 16.2 µM). Besides, the “MIC K. pneumoniae ATCC 13883” value in experiment [9] was more than 32 µg/mL. For the same molecule, in experiment [10], the “MIC E. coli ATCC 25922” value was 32 µg/mL (≈ 32.3 µM).
